Laboratory results taken from US20250263459A1, “STABILIZED PACAP PEPTIDE” (SENJU PHARMACEUTICAL CO., LTD., priority 2019, published 2025).
Non-standard residues stand in square brackets, D forms with d. Residues, ends and D or L forms follow the SMILES beside them. ξ: configuration not given here. ξAla(tetrazol-5-yl) = NC(Cc1nnn[nH]1)C(=O)O; Aib = CC(C)(N)C(=O)O

Key:
[1] = Stability test 1: survival rate of peptide in phosphate buffer (pH 7.0) after storage, HPLC; type: physicochemical; details: 100 μM peptide, 0.1% phosphate buffer pH 7.0, 40° C., 4 weeks (Table 4)
Experimental: The 1.0 mM peptide solutions were then diluted with phosphate buffer to 100 μM. […] The prepared peptide solutions were incubated for one month or 2 months in a 40° C. thermostatic bath to obtain stored samples.
Using the total weight of the aqueous peptide solution and storage vessel as the specimen weight, measurements were recorded as the specimen weights before storage and the specimen weights after storage under different storage conditions. The empty weight of the storage vessel was also measured, and the moisture permeability was determined by the following formula.
After stirring the standard sample and the stored samples with a vortex mixer, each peptide solution was transferred to an HPLC vial (Deactivated Qsert vial by Waters Co.). Reverse-phase HPLC (HPLC system: Prominence by Shimadzu Corp.) was conducted under the conditions shown in Table 3 below for analysis of the peptide solutions, and chromatograms were obtained.
The peak area value for the peptide in the chromatogram was calculated, and the survival rate (survival rate before correction for water) was calculated using formula (2). The survival rate after correction for water was also calculated from the survival rate before correction for water using formula (3) to take into account the permeability of the container.
Peptide solutions prepared by the same method as [Measuring sample preparation 1] for the peptides synthesized in Example 2 (peptides 13 to 16) were incubated for 2 weeks and 8 weeks in a thermostatic bath at 40° C. to obtain stored samples.
Peptide solutions prepared by the same method as [Measuring sample preparation 1] for the peptides synthesized in Example 2 (peptides 17 to 21) were incubated for 4 weeks in a thermostatic bath at 40° C. to obtain stored samples.
A peptide solution prepared by the same method as [Measuring sample preparation 1] for peptide 22 synthesized in Example 2 was incubated for 1 week and 4 weeks in a thermostatic bath at 40° C. to obtain stored samples.

[2] = as above; type: physicochemical; details: 100 μM peptide, 0.1% phosphate buffer pH 7.0, head prints 80° C., 8 weeks (Table 4)
[3] = 100 μM peptide, Tris buffer pH 7.0, 60° C.
Experimental: The solution was filtered with a Chromatdisk (product of Merck Millipore, Millex-GV, 0.22 μm). The filtrate was diluted to 100 μM with Tris buffer (pH 7.0) and dispensed into a tube (Protein LoBind Tube by Eppendorf Co.). The prepared peptide solutions were incubated for 1 week or 2 weeks in a 60° C. thermostatic bath to obtain stored samples. A simultaneously prepared sample among the peptide solutions that was not stored was used as a standard sample (initial sample). The standard sample and the stored samples were stored at −30° C. until sample analysis.
• Column: XSelect CSH C18 by Waters Co., 5 μm, 4.6×250 mm • Guard column: XSelect CSH C18 by Waters Co., 5 μm, 4.6×20 mm Guard Cartridge • Detection wavelength: 220 nm • Mobile phase A: 0.1% formic acid aqueous solution • Mobile phase B: 0.1% acetonitrile formate solution • Measuring time: 20 minutes • Measuring sample injection rate: 50 μL • Flow rate: 1.0 mL/min • Column temperature: 40° C. • Sample cooler: 25° C. • Mobile phase delivery: The mixing ratio of mobile phase A and mobile phase B was varied as shown in Table 14 for linear concentration gradient control.

| Compound | survival rate after correction for water, 40° C. 4 week [1] | survival rate after correction for water, 80° C. 8 week [2] | survival rate after correction for water, 60° C. 1 week preservation ([3]; 1 week) | survival rate after correction for water, 60° C. 2 weeks preservation ([3]; 2 weeks) |
| --- | --- | --- | --- | --- |
| CC[C@H](C)[C@H](NC(=O)CNC(=O)C(Cc1nnn[nH]1)NC(=O)[C@H](CO)NC(=O)[C@@H](N)Cc1c[nH]cn1)C(=O)N[C@@H](Cc1ccccc1)C(=O)N[C@@H](C)C(=O)NC(Cc1nnn[nH]1)C(=O)N[C@@H](C)C(=O)N[C@@H](Cc1ccc(O)cc1)C(=O)N[C@@H](CO)C(=O)N[C@@H](CCCNC(=N)N)C(=O)N[C@@H](Cc1ccc(O)cc1)C(=O)N[C@@H](CCCNC(=N)N)C(=O)N[C@@H](CCCCN)C(=O)N[C@@H](CCC(N)=O)C(=O)N[C@@H](CCSC)C(=O)N[C@@H](C)C(=O)N[C@H](C(=O)N[C@@H](CCCCN)C(=O)N[C@@H](CCCCN)C(=O)N[C@@H](Cc1ccc(O)cc1)C(=O)N[C@@H](CC(C)C)C(=O)N[C@@H](C)C(=O)N[C@@H](C)C(=O)N[C@H](C(=O)N[C@@H](CC(C)C)C(N)=O)C(C)C)C(C)C (stereo partly shown) [Peptide 1, HSTzGI FATzAY SRYRK QMAVK KYLAA VL] (H-HS[ξAla(tetrazol-5-yl)]GIFA[ξAla(tetrazol-5-yl)]AYSRYRKQMAVKKYLAAVL-NH2) | 91.1% | 81.5% | – | – |
| CC[C@H](C)[C@H](NC(=O)CNC(=O)C(Cc1nnn[nH]1)NC(=O)[C@H](CO)NC(=O)[C@@H](N)Cc1c[nH]cn1)C(=O)N[C@@H](Cc1ccccc1)C(=O)N[C@@H](C)C(=O)NC(Cc1nnn[nH]1)C(=O)N[C@@H](CO)C(=O)N[C@@H](Cc1ccc(O)cc1)C(=O)N[C@@H](C)C(=O)N[C@@H](CCCNC(=N)N)C(=O)N[C@@H](Cc1ccc(O)cc1)C(=O)N[C@@H](CCCNC(=N)N)C(=O)N[C@@H](CCCCN)C(=O)N[C@@H](CCC(N)=O)C(=O)N[C@@H](CCSC)C(=O)N[C@@H](C)C(=O)N[C@H](C(=O)N[C@@H](CCCCN)C(=O)N[C@@H](CCCCN)C(=O)N[C@@H](Cc1ccc(O)cc1)C(=O)N[C@@H](CC(C)C)C(=O)N[C@@H](C)C(=O)N[C@@H](C)C(=O)N[C@H](C(=O)N[C@@H](CC(C)C)C(N)=O)C(C)C)C(C)C (stereo partly shown) [Peptide 2, HSTzGI FATzSY ARYRK QMAVK KYLAA VL] (H-HS[ξAla(tetrazol-5-yl)]GIFA[ξAla(tetrazol-5-yl)]SYARYRKQMAVKKYLAAVL-NH2) | 91.9% | 83.7% | – | – |
| CC[C@H](C)[C@H](NC(=O)CNC(=O)C(Cc1nnn[nH]1)NC(=O)[C@H](CO)NC(=O)[C@@H](N)Cc1c[nH]cn1)C(=O)N[C@@H](Cc1ccccc1)C(=O)N[C@@H](C)C(=O)NC(Cc1nnn[nH]1)C(=O)NC(C)(C)C(=O)N[C@@H](Cc1ccc(O)cc1)C(=O)N[C@@H](CO)C(=O)N[C@@H](CCCNC(=N)N)C(=O)N[C@@H](Cc1ccc(O)cc1)C(=O)N[C@@H](CCCNC(=N)N)C(=O)N[C@@H](CCCCN)C(=O)N[C@@H](CCC(N)=O)C(=O)N[C@@H](CCSC)C(=O)N[C@@H](C)C(=O)N[C@H](C(=O)N[C@@H](CCCCN)C(=O)N[C@@H](CCCCN)C(=O)N[C@@H](Cc1ccc(O)cc1)C(=O)N[C@@H](CC(C)C)C(=O)N[C@@H](C)C(=O)N[C@@H](C)C(=O)N[C@H](C(=O)N[C@@H](CC(C)C)C(N)=O)C(C)C)C(C)C (stereo partly shown) [Peptide 4, HSTzGI FATzAiY SRYRK QMAVK KYLAA VL] (H-HS[ξAla(tetrazol-5-yl)]GIFA[ξAla(tetrazol-5-yl)][Aib]YSRYRKQMAVKKYLAAVL-NH2) | 95.4% | 88.4% | – | – |
| CC[C@H](C)[C@H](NC(=O)CNC(=O)C(Cc1nnn[nH]1)NC(=O)[C@H](CO)NC(=O)[C@@H](N)Cc1c[nH]cn1)C(=O)N[C@@H](Cc1ccccc1)C(=O)N[C@@H](C)C(=O)NC(Cc1nnn[nH]1)C(=O)N[C@@H](CO)C(=O)N[C@@H](Cc1ccc(O)cc1)C(=O)NC(C)(C)C(=O)N[C@@H](CCCNC(=N)N)C(=O)N[C@@H](Cc1ccc(O)cc1)C(=O)N[C@@H](CCCNC(=N)N)C(=O)N[C@@H](CCCCN)C(=O)N[C@@H](CCC(N)=O)C(=O)N[C@@H](CCSC)C(=O)N[C@@H](C)C(=O)N[C@H](C(=O)N[C@@H](CCCCN)C(=O)N[C@@H](CCCCN)C(=O)N[C@@H](Cc1ccc(O)cc1)C(=O)N[C@@H](CC(C)C)C(=O)N[C@@H](C)C(=O)N[C@@H](C)C(=O)N[C@H](C(=O)N[C@@H](CC(C)C)C(N)=O)C(C)C)C(C)C (stereo partly shown) [Peptide 5, HSTzGI FATzSY AiRYRK QMAVK KYLAA VL] (H-HS[ξAla(tetrazol-5-yl)]GIFA[ξAla(tetrazol-5-yl)]SY[Aib]RYRKQMAVKKYLAAVL-NH2) | 94.4% | 85.4% | – | – |
| CC[C@H](C)[C@H](NC(=O)CNC(=O)C(Cc1nnn[nH]1)NC(=O)[C@H](CO)NC(=O)[C@@H](N)Cc1c[nH]cn1)C(=O)N[C@@H](Cc1ccccc1)C(=O)N[C@@H](C)C(=O)NC(Cc1nnn[nH]1)C(=O)NC(C)(C)C(=O)N[C@@H](Cc1ccc(O)cc1)C(=O)NC(C)(C)C(=O)N[C@@H](CCCNC(=N)N)C(=O)N[C@@H](Cc1ccc(O)cc1)C(=O)N[C@@H](CCCNC(=N)N)C(=O)N[C@@H](CCCCN)C(=O)N[C@@H](CCC(N)=O)C(=O)N[C@@H](CCSC)C(=O)N[C@@H](C)C(=O)N[C@H](C(=O)N[C@@H](CCCCN)C(=O)N[C@@H](CCCCN)C(=O)N[C@@H](Cc1ccc(O)cc1)C(=O)N[C@@H](CC(C)C)C(=O)N[C@@H](C)C(=O)N[C@@H](C)C(=O)N[C@H](C(=O)N[C@@H](CC(C)C)C(N)=O)C(C)C)C(C)C (stereo partly shown) [Peptide 6, HSTzGI FATzAiY AiRYRK QMAVK KYLAA VL] (H-HS[ξAla(tetrazol-5-yl)]GIFA[ξAla(tetrazol-5-yl)][Aib]Y[Aib]RYRKQMAVKKYLAAVL-NH2) | 94.0% | 87.5% | – | – |
| CC[C@H](C)[C@H](NC(=O)CNC(=O)C(Cc1nnn[nH]1)NC(=O)[C@H](CO)NC(=O)[C@@H](N)Cc1c[nH]cn1)C(=O)N[C@@H](Cc1ccccc1)C(=O)N[C@H](C(=O)NC(Cc1nnn[nH]1)C(=O)NC(C)(C)C(=O)N[C@@H](Cc1ccc(O)cc1)C(=O)NC(C)(C)C(=O)N[C@@H](CCCNC(=N)N)C(=O)N[C@@H](Cc1ccc(O)cc1)C(=O)N[C@@H](CCCNC(=N)N)C(=O)N[C@@H](CCCCN)C(=O)N[C@@H](CCC(N)=O)C(=O)N[C@@H](CCSC)C(=O)N[C@@H](C)C(=O)N[C@H](C(=O)N[C@@H](CCCCN)C(=O)N[C@@H](CCCCN)C(=O)N[C@@H](Cc1ccc(O)cc1)C(=O)N[C@@H](CC(C)C)C(=O)N[C@@H](C)C(=O)N[C@@H](C)C(=O)N[C@H](C(=O)N[C@@H](CC(C)C)C(N)=O)C(C)C)C(C)C)[C@@H](C)O (stereo partly shown) [Peptide 7, HSTzGI FTTzAiY AiRYRK QMAVK KYLAA VL] (H-HS[ξAla(tetrazol-5-yl)]GIFT[ξAla(tetrazol-5-yl)][Aib]Y[Aib]RYRKQMAVKKYLAAVL-NH2) | 91.8% | 83.5% | – | – |
| CC[C@H](C)[C@H](NC(=O)CNC(=O)C(Cc1nnn[nH]1)NC(=O)[C@H](CO)NC(=O)[C@@H](N)Cc1c[nH]cn1)C(=O)N[C@@H](Cc1ccccc1)C(=O)N[C@H](C(=O)NC(Cc1nnn[nH]1)C(=O)N[C@@H](CO)C(=O)N[C@@H](Cc1ccc(O)cc1)C(=O)N[C@@H](CO)C(=O)N[C@@H](CCCNC(=N)N)C(=O)N[C@@H](Cc1ccc(O)cc1)C(=O)N[C@@H](CCCNC(=N)N)C(=O)N[C@@H](CCCCN)C(=O)N[C@@H](CCC(N)=O)C(=O)N[C@@H](CCSC)C(=O)N[C@@H](C)C(=O)N[C@H](C(=O)N[C@@H](CCCCN)C(=O)N[C@@H](CCCCN)C(=O)N[C@@H](Cc1ccc(O)cc1)C(=O)N[C@@H](CC(C)C)C(=O)N[C@@H](C)C(N)=O)C(C)C)[C@@H](C)O (stereo partly shown) [Peptide 8, HSTzGI FTTzSY SRYRK QMAVK KYLA] (H-HS[ξAla(tetrazol-5-yl)]GIFT[ξAla(tetrazol-5-yl)]SYSRYRKQMAVKKYLA-NH2) | 95.1% | 84.1% | – | – |
| HSTzGIFTTzSYSRYRKQNIAVKKYLAAVL [Reference Example 5] (HSXGIFTXSYSRYRKQXAVKKYLAAVL; N-acetyl; C-terminal amide; Tz residues; modified PACAP peptide; MOD_RES (1)..(1) …ON; MUTAGEN (3)..(3) Xaa is amino acid wherein carboxy group of asparatic acid is substituted with tetrazole; MUTAGEN (8)..(8) Xaa is amino acid wherein carboxy group of asparatic acid is substituted with tetrazole; MUTAGEN (17)..(17) Xaa is Nle) | – | – | 98.1% | 92.9% |
